From ChEMBL document CHEMBL5625252, “Synthesis of peptidomimetics as antibiotic adjuvants for combination with aztreonam to combat MDR Pseudomonas aeruginosa” (Eur J Med Chem, 2023)
≈ marks a conversion by molar mass, not a printed value. Calls of active or inactive are those of the source. No cut-off for these calls is given here.

Columns and labels:
[1] = system: Pseudomonas aeruginosa; assay: Antibacterial activity against Pseudomonas aeruginosa 13-3 assessed as inhibition of bacterial growth incubated for 18 hrs by agar dilution method; format: functional
[2] = system: Pseudomonas aeruginosa; assay: Antibacterial activity against Pseudomonas aeruginosa 23-Y539 assessed as inhibition of bacterial growth incubated for 18 hrs by agar dilution method; format: functional
[3] = system: Pseudomonas aeruginosa; assay: Antibacterial activity against Pseudomonas aeruginosa 19-46 assessed as inhibition of bacterial growth incubated for 18 hrs by agar dilution method; format: functional
[4] = system: Pseudomonas aeruginosa; assay: Antibacterial activity against Pseudomonas aeruginosa 21-8 assessed as inhibition of bacterial growth incubated for 18 hrs by agar dilution method; format: functional
[5] = system: Pseudomonas aeruginosa; assay: Antibacterial activity against Pseudomonas aeruginosa 21-2 assessed as inhibition of bacterial growth incubated for 18 hrs by agar dilution method; format: functional
[6] = system: Pseudomonas aeruginosa; assay: Antibacterial activity against Pseudomonas aeruginosa 16-11 assessed as inhibition of bacterial growth incubated for 18 hrs by agar dilution method; format: functional
[7] = system: Pseudomonas aeruginosa; assay: Antibacterial activity against Pseudomonas aeruginosa 13-35 assessed as inhibition of bacterial growth incubated for 18 hrs by agar dilution method; format: functional
[8] = system: Pseudomonas aeruginosa; assay: Antibacterial activity against Pseudomonas aeruginosa 23-Y122 assessed as inhibition of bacterial growth incubated for 18 hrs by agar dilution method; format: functional
[9] = system: Pseudomonas aeruginosa; assay: Antibacterial activity against Pseudomonas aeruginosa 23-Y364 assessed as inhibition of bacterial growth incubated for 18 hrs by agar dilution method; format: functional
[10] = system: Pseudomonas aeruginosa; assay: Antibacterial activity against Pseudomonas aeruginosa 23-Y511 assessed as inhibition of bacterial growth incubated for 18 hrs by agar dilution method; format: functional
[11] = system: Pseudomonas aeruginosa; assay: Antibacterial activity against Pseudomonas aeruginosa 23-Y372 assessed as inhibition of bacterial growth incubated for 18 hrs by agar dilution method; format: functional
[12] = system: Pseudomonas aeruginosa; assay: Antibacterial activity against Pseudomonas aeruginosa 21-7 assessed as inhibition of bacterial growth incubated for 18 hrs by agar dilution method; format: functional
[13] = system: Pseudomonas aeruginosa; assay: Antibacterial activity against Pseudomonas aeruginosa PAO1 assessed as inhibition of bacterial growth incubated for 18 hrs by agar dilution method; format: functional
[14] = system: Pseudomonas aeruginosa; assay: Antibacterial activity against Pseudomonas aeruginosa 13-17 assessed as inhibition of bacterial growth incubated for 18 hrs by agar dilution method; format: functional
[15] = system: Pseudomonas aeruginosa; assay: Antibacterial activity against Pseudomonas aeruginosa 19-55 assessed as inhibition of bacterial growth incubated for 18 hrs by agar dilution method; format: functional
[16] = system: Pseudomonas aeruginosa; assay: Antibacterial activity against Pseudomonas aeruginosa 23-Y417 assessed as inhibition of bacterial growth incubated for 18 hrs by agar dilution method; format: functional; settings: read-out: MIC
[17] = system: Pseudomonas aeruginosa; assay: Antibacterial activity against Pseudomonas aeruginosa 16-2 assessed as inhibition of bacterial growth incubated for 18 hrs by agar dilution method; format: functional
[18] = system: Pseudomonas aeruginosa; assay: Antibacterial activity against Pseudomonas aeruginosa 12-1 assessed as inhibition of bacterial growth incubated for 18 hrs by agar dilution method; format: functional
[19] = system: Pseudomonas aeruginosa; assay: Antibacterial activity against Pseudomonas aeruginosa PAO1 in CAMH broth medium supplemented with 20.99 to 21.09 mM Mg2+ by checkerboard assay; format: functional
[20] = system: Escherichia coli; assay: Antibacterial activity against ESBLs (-) Escherichia coli ATCC 25922 assessed as inhibition of bacterial growth incubated for 18 hrs by agar dilution method; format: functional
[21] = system: Pseudomonas aeruginosa; assay: Antibacterial activity against Pseudomonas aeruginosa 12-1 in CAMH broth medium supplemented with 0.41 to 0.51 mM Mg2+ by checkerboard assay; format: functional
[22] = system: Klebsiella pneumoniae; assay: Antibacterial activity against NDM-1 (+) Klebsiella pneumoniae 2146 assessed as inhibition of bacterial growth incubated for 18 hrs by agar dilution method; format: functional
[23] = system: Escherichia coli; assay: Antibacterial activity against NDM-1 (+) Escherichia coli CDC 1001728 assessed as inhibition of bacterial growth incubated for 18 hrs by agar dilution method; format: functional
[24] = system: Pseudomonas aeruginosa; assay: Antibacterial activity against Pseudomonas aeruginosa 12-1 in CAMH broth medium supplemented with 20.99 to 21.09 mM Mg2+ by checkerboard assay; format: functional
[25] = system: Escherichia coli; assay: Antibacterial activity against ESBLs (+) Escherichia coli 16-1 assessed as inhibition of bacterial growth incubated for 18 hrs by agar dilution method; format: functional
[26] = system: Pseudomonas aeruginosa; assay: Antibacterial activity against Pseudomonas aeruginosa 16-2 at 16 ug/ml measured upto 24 hrs by time-kill assay; format: functional, organism-based; settings: dose 16.0 µg/ml
[27] = system: Pseudomonas aeruginosa; assay: Antibacterial activity against Pseudomonas aeruginosa 16-11 in CAMH broth medium supplemented with 0.41 to 0.51 mM Mg2+ by checkerboard assay; format: functional
[28] = system: Escherichia coli; assay: Antibacterial activity against mcr-1 (+) Escherichia coli 08-85 assessed as inhibition of bacterial growth incubated for 18 hrs by agar dilution method; format: functional
[29] = system: Pseudomonas aeruginosa; assay: Antibacterial activity against BL (+) Pseudomonas aeruginosa ATCC 27853 assessed as inhibition of bacterial growth incubated for 18 hrs by agar dilution method; format: functional
[30] = system: Pseudomonas aeruginosa; assay: Antibacterial activity against Pseudomonas aeruginosa 16-2 infected in Galleria mellonella assessed as larvae survival rate at 50 mg/kg after 96 hrs of innoculation; format: functional
[31] = system: Pseudomonas aeruginosa; assay: Antibacterial activity against Pseudomonas aeruginosa 13-35 in CAMH broth medium supplemented with 20.99 to 21.09 mM Mg2+ by checkerboard assay; format: functional
[32] = system: Klebsiella pneumoniae; assay: Antibacterial activity against ESBLs (+) Klebsiella pneumoniae ATCC 700603 assessed as inhibition of bacterial growth incubated for 18 hrs by agar dilution method; format: functional
[33] = system: Klebsiella pneumoniae; assay: Antibacterial activity against NDM-1 (+) Klebsiella pneumoniae 09-20 assessed as inhibition of bacterial growth incubated for 18 hrs by agar dilution method; format: functional
[34] = system: Pseudomonas aeruginosa; assay: Antibacterial activity against Pseudomonas aeruginosa PAO1 in CAMH broth medium supplemented with 0.41 to 0.51 mM Mg2+ by checkerboard assay; format: functional
[35] = system: Pseudomonas aeruginosa; assay: Antibacterial activity against Pseudomonas aeruginosa PAO1 infected in Galleria mellonella assessed as increase in larvae survival at 25 mg/kg measured every 12 hrs; format: functional, organism-based
[36] = system: Pseudomonas aeruginosa; assay: Antibacterial activity against Pseudomonas aeruginosa 16-11 in CAMH broth medium supplemented with 20.99 to 21.09 mM Mg2+ by checkerboard assay; format: functional
[37] = system: Pseudomonas aeruginosa; assay: Antibacterial activity against Pseudomonas aeruginosa 13-35 in CAMH broth medium supplemented with 0.41 to 0.51 mM Mg2+ by checkerboard assay; format: functional
[38] = system: Klebsiella pneumoniae; assay: Antibacterial activity against ESBLs (+) Klebsiella pneumoniae 16-14 assessed as inhibition of bacterial growth incubated for 18 hrs by agar dilution method; format: functional
[39] = system: Pseudomonas aeruginosa; assay: Antibacterial activity against Pseudomonas aeruginosa PAO1 at 2 ug/ml measured upto 24 hrs by time-kill assay; format: functional, organism-based; settings: dose 2.0 µg/ml

CC(C)(O/N=C(\C(=O)N[C@@H]1C(=O)N2C(C(=O)[O-])=C(C[n+]3ccccc3)CS[C@H]12)c1csc(N)n1)C(=O)O [CEFTAZIDIME]
MIC [1]: 64 µg/mL (≈ 117 µM) | MIC [2]: 32 µg/mL (≈ 58.5 µM) | MIC [3]: 128 µg/mL (≈ 234 µM) | MIC [4]: 1 µg/mL (≈ 1.83 µM) | MIC [5]: 64 µg/mL (≈ 117 µM) | MIC [6]: > 256 µg/mL | MIC [7]: 16 µg/mL (≈ 29.3 µM) | MIC [8]: 256 µg/mL (≈ 468 µM) | MIC [9]: 64 µg/mL (≈ 117 µM) | MIC [10]: 1 µg/mL (≈ 1.83 µM) | MIC [11]: > 256 µg/mL | MIC [12]: > 256 µg/mL | MIC [13]: 2 µg/mL (≈ 3.66 µM) | MIC [14]: 64 µg/mL (≈ 117 µM) | MIC [15]: 128 µg/mL (≈ 234 µM) | MIC [16]: 4 µg/mL (≈ 7.32 µM) | MIC [17]: 128 µg/mL (≈ 234 µM) | MIC [18]: 64 µg/mL (≈ 117 µM)

C[C@H]1[C@H](NC(=O)/C(=N\OC(C)(C)C(=O)O)c2csc(N)n2)C(=O)N1S(=O)(=O)O [AZTREONAM]
MIC [19]: 8 µg/mL | MIC [20]: 0.06 µg/mL (≈ 0.138 µM) | MIC [1]: 64 µg/mL (≈ 147 µM) | MIC [21]: 64 µg/mL | MIC [22]: > 128 µg/mL | MIC [23]: 4 µg/mL (≈ 9.19 µM) | MIC [2]: 64 µg/mL (≈ 147 µM) | MIC [24]: 64 µg/mL | MIC [3]: 128 µg/mL (≈ 294 µM) | MIC [25]: ≤ 0.03 µg/mL | Activity [26]: inactive | MIC [27]: 8 µg/mL | MIC [28]: 4 µg/mL (≈ 9.19 µM) | MIC [5]: 64 µg/mL (≈ 147 µM) | MIC [6]: 8 µg/mL (≈ 18.4 µM) | MIC [7]: 32 µg/mL (≈ 73.5 µM) | MIC [29]: 4 µg/mL (≈ 9.19 µM) | MIC [8]: 32 µg/mL (≈ 73.5 µM) | MIC [9]: > 256 µg/mL | Activity [30]: 30% | MIC [10]: 32 µg/mL (≈ 73.5 µM) | MIC [31]: 32 µg/mL | MIC [11]: 32 µg/mL (≈ 73.5 µM) | MIC [12]: > 256 µg/mL | MIC [13]: 8 µg/mL (≈ 18.4 µM) | MIC [32]: 32 µg/mL (≈ 73.5 µM) | MIC [14]: 64 µg/mL (≈ 147 µM) | MIC [15]: 128 µg/mL (≈ 294 µM) | MIC [33]: 0.25 µg/mL (≈ 0.574 µM) | MIC [34]: 8 µg/mL | Activity [35]: inactive | MIC [36]: 8 µg/mL | MIC [37]: 32 µg/mL | MIC [38]: 4 µg/mL (≈ 9.19 µM) | MIC [18]: 64 µg/mL (≈ 147 µM) | Activity [39]: inactive

C[C@@H](O)[C@H]1C(=O)N2C(C(=O)O)=C(SCCNC=N)C[C@H]12 [IMIPENEM ANHYDROUS]
MIC [1]: 64 µg/mL (≈ 214 µM) | MIC [2]: 8 µg/mL (≈ 26.7 µM) | MIC [3]: 32 µg/mL (≈ 107 µM) | MIC [4]: 1 µg/mL (≈ 3.34 µM) | MIC [5]: 16 µg/mL (≈ 53.4 µM) | MIC [6]: 1 µg/mL (≈ 3.34 µM) | MIC [7]: 32 µg/mL (≈ 107 µM) | MIC [8]: 4 µg/mL (≈ 13.4 µM) | MIC [9]: 16 µg/mL (≈ 53.4 µM) | MIC [10]: 0.5 µg/mL (≈ 1.67 µM) | MIC [11]: 128 µg/mL (≈ 428 µM) | MIC [12]: 16 µg/mL (≈ 53.4 µM) | MIC [13]: 8 µg/mL (≈ 26.7 µM) | MIC [14]: 32 µg/mL (≈ 107 µM) | MIC [15]: 32 µg/mL (≈ 107 µM) | MIC [16]: 16 µg/mL (≈ 53.4 µM) | MIC [17]: 32 µg/mL (≈ 107 µM) | MIC [18]: 64 µg/mL (≈ 214 µM)

C[C@@H](O)[C@H]1C(=O)N2C(C(=O)O)=C(S[C@@H]3CN[C@H](C(=O)N(C)C)C3)[C@H](C)[C@H]12 [MEROPENEM]
MIC [1]: 32 µg/mL (≈ 83.4 µM) | MIC [2]: 1 µg/mL (≈ 2.61 µM) | MIC [3]: 128 µg/mL (≈ 334 µM) | MIC [4]: 0.5 µg/mL (≈ 1.3 µM) | MIC [5]: 16 µg/mL (≈ 41.7 µM) | MIC [6]: 1 µg/mL (≈ 2.61 µM) | MIC [7]: 32 µg/mL (≈ 83.4 µM) | MIC [8]: 128 µg/mL (≈ 334 µM) | MIC [9]: 2 µg/mL (≈ 5.22 µM) | MIC [10]: 0.125 µg/mL (≈ 0.326 µM) | MIC [11]: > 256 µg/mL | MIC [12]: 16 µg/mL (≈ 41.7 µM) | MIC [13]: 2 µg/mL (≈ 5.22 µM) | MIC [14]: 32 µg/mL (≈ 83.4 µM) | MIC [15]: 128 µg/mL (≈ 334 µM) | MIC [16]: 16 µg/mL (≈ 41.7 µM) | MIC [17]: 16 µg/mL (≈ 41.7 µM) | MIC [18]: 16 µg/mL (≈ 41.7 µM)
